Measurements published in patent US9238634B2, “Anti-inflammatory metabolite derived from omega-3-type fatty acid” (THE UNIVERSITY OF TOKYO, priority 2010, dated 2016).

System: PMN (neutrophils)
Assay: Zymosan peritonitis model, number of PMN (neutrophils) in intraperitoneal cells by FACS
Type: in vivo, C57BL/6J mice
Conditions: for PMN (mean % suppression) / Inhibition rate (PMN inhibition): caudal vein, zymosan 1 mg i.p.; for PMN (mean % suppression): two hours; for suppression of neutrophil infiltration: caudal vein (FIG. 4C); for Inhibition rate (PMN inhibition): cells recovered two hours later
Experimental: [FIG. 4A] […] The model was produced by inducing acute peritonitis by intraperitoneal administration of 1 mg of zymosan to C57BL6 mice. From the left, 17,18-EpETE, 5-hydroxy-17,18-epoxy-ETE (5hy-17,18-EpETE), 8-hydroxy-17,18-epoxy-ETE (8hy-17,18-EpETE), 12-hydroxy-17,18-epoxy-ETE (12hy-17,18-EpETE), and 15-hydroxy-17,18-epoxy-ETE (15hy-17,18-EpETE) respectively ([…]) were injected from a caudal vein of the mouse, and peritonitis was initiated by intraperitoneal administration of 1 mg of zymosan five minutes later. Intraperitoneal cells were recovered two hours later, and the results obtained by analyzing the number of PMN (neutrophils) of each by FACS are shown. […]
Zymosan peritonitis induced by intraperitoneal administration of zymosan, which is a cell wall component of yeast, was used as the inflammation model. This model is suited to the analysis of cytokines and eicosanoids since the intraperitoneal exudate can be recovered.
Zymosan A (Wako Pure Chemical Industries) was suspended in physiological saline to make 1 mg/mL and warmed for 30 minutes at 37° C. The zymosan A solution was then vortexed and returned to room temperature. A compound synthesized in a previous example was placed in a 1.5 mL tube and completely dried by driving off the solvent by nitrogen. It was then dissolved by adding physiological saline. […] Groups injected with only physiological saline (saline) or dexamethasone (10 μg/mouse), which is an anti-inflammatory steroid, were used as controls. Approximately two minutes later, 1 mL of zymosan A solution was administered intraperitoneally. Two hours later, cells that had exuded into the peritoneal cavity were recovered by tube by PBS, and the cells were counted. This tube was then centrifuged for five minutes at 1200 rpm, 4° C., and the supernatant was discarded. The precipitate (pellets) was suspended in PBS, and population analysis was performed by FACS three-color stain.
Peritoneal cells were adjusted to 2.5×10^6 cells/mL, and 200 μL was placed in a 5 mL round-bottomed tube (BD Falcon) (5×10^5 cells/tube). A quantity of 1 μL/tube of anti-mouse CD16/CD32 antibody (0.5 mg/mL; BD Biosciences) was added to this tube and incubated for 10 minutes at room temperature. Staining antibody mix (1.0 μL/sample of FITC-bound anti-mouse F4/80 antibody (0.5 mg/mL; eBioscience), 0.5 μL of PE-bound anti-mouse Ly-6G&Ly-6C antibody (0.2 mg/mL; eBioscience), and 0.5 μL of perCP-Cy5.5-bound anti-mouse CD11b antibody (0.2 mg/mL; eBioscience) per sample prepared by dilution by 50 μL of PBS) was added to this tube in a quantity of 50 μL/tube and incubated for 15 minutes at room temperature shielded from light. Measurement was performed by an FACS Calibur (BD Biosciences).

[1] = 100 ng, Table 6 (FIG. 4D), mean of 6-11 studies
[2] = 100 ng, Table 4 (FIG. 4B), mean of 3-4 studies
[3] = 100 ng, Table 3 (FIG. 4A), mean of 4-6 studies
[4] = 100 ng, Table 5 (FIG. 4B), mean of 3-4 studies

14-hydroxy-19,20-epoxy-docosatetraenoic acid [14hy-19,20-EpDTE]
suppression of neutrophil infiltration, result in words (100 ng): statistically significant effects | PMN (mean % suppression) [1]: 15.35%

17-hydroxy-19,20-epoxy-docosatetraenoic acid [17hy-19,20-EpDTE]
suppression of neutrophil infiltration, result in words (100 ng): statistically significant effects | PMN (mean % suppression) [1]: 23.28%

CCC1OC1CC=CCC=CCC=CCC=CC=CC(O)CCC(=O)O (stereo not shown) [4-hy-19,20-EpDPE, 4-hydroxy-19,20-epoxy-docosapentaenoic acid]
suppression of neutrophil infiltration, result in words (100 ng): tend to suppress neutrophil infiltration | PMN (mean % suppression) [2]: 2.1% | PMN (mean % suppression) (500 ng, Table 4 (FIG. 4B)): 0.0%

CCC1OC1CC=CCC=CCC=CC=CC(O)CCCC(=O)O (stereo not shown) [5-hy-17,18-EpETE, 5-hydroxy-17,18-epoxy-eicosatetraeonic acid]
PMN (mean % suppression) [3]: 50.6%

CCC1OC1CC=CCC=CCC=CC=CC(O)CC=CCCC(=O)O (stereo not shown) [7-hy-19,20-EpDPE, 7-hydroxy-19,20-epoxy-docosapentaenoic acid]
PMN (mean % suppression) [2]: 0.0% | suppression of neutrophil infiltration, result in words (500 ng): tend to suppress neutrophil infiltration | PMN (mean % suppression) (500 ng, Table 4 (FIG. 4B)): 8.7%

CCC1OC1C/C=C\C/C=C\C=C\C(O)C/C=C\CCCC(=O)O (stereo not shown) [8-hy-17,18-EpETE, 8-hydroxy-17,18-epoxy-eicosatetraenoic acid]
PMN (mean % suppression) [3]: 10.4%

CCC1OC1CC=CCC=CC=CC(O)CC=CCC=CCCC(=O)O (stereo not shown) [10-hy-19,20-EpDPE, 10-hydroxy-19,20-epoxy-docosapentaenoic acid]
PMN (mean % suppression) [4]: 20.7%

CCC1OC1C/C=C\C/C=C\C=C\C(O)C/C=C\CCCCCC(=O)O (stereo not shown) [10hy-19,20-EpDTE, 10-hydroxy-19,20-epoxy-docosatetraenoic acid]
suppression of neutrophil infiltration, result in words (100 ng): tendency toward suppression | PMN (mean % suppression) [1]: 8.27%

CCC1OC1CC=CCC(O)C=CC=CCC=CCCCC(=O)O (stereo not shown) [12hy-17,18-EpETE, 12-hydroxy-17,18-epoxy-eicosatetraenoic acid]
suppression of neutrophil infiltration (1 ng/mouse): 30% | suppression of neutrophil infiltration (10 ng/mouse): approximately 40% | PMN (mean % suppression) [3]: 48.4% | neutrophil-suppressing activity compared with dexamethasone control (1 or 10 ng/mouse versus 10 μg/mouse of dexamethasone): equivalent to or better than | Inhibition rate (PMN inhibition) (dose 0.44 ng): 28.8% | Inhibition rate (PMN inhibition) (dose 4.35 ng): 39.3% | Inhibition rate (PMN inhibition) (dose 43.48 ng): 56.3% | Inhibition rate (PMN inhibition) (dose 434.8 ng): 49.8% | dose dependence of PMN inhibition (doses 0.44 to 434.3 ng (FIG. 4C)): dose-dependent

CCC1OC1CC=CC=CC(O)CC=CCC=CCC=CCCC(=O)O (stereo not shown) [13-hy-19,20-EpDPE, 13-hydroxy-19,20-epoxy-docosapentaenoic acid]
PMN (mean % suppression) [4]: 12.0%

CCC1OC1CC=CCC(O)C=CC=CCC=CCC=CCCC(=O)O (stereo not shown) [14-hy-19,20-EpDPE, 14-hydroxy-19,20-epoxy-docosapentaeonic acid]
PMN (mean % suppression) [4]: 57.3%

CCC1OC1CC(O)/C=C/C=C\C/C=C\C/C=C\CCCC(=O)O (stereo not shown) [15-hy-17,18-EpETE, 15-hydroxy-17,18-epoxy-eicosatetraenoic acid]
PMN (mean % suppression) [3]: 42.9%

CCC1OC1C/C=C\C/C=C\C/C=C\C/C=C\CCCC(=O)O (stereo not shown) [17,18-EpETE, 17,18-epoxyeicosatetraenoic acid, reference compound]
PMN (mean % suppression) [3]: 0.0%

CCC1OC1CC(O)C=CC=CCC=CCC=CCC=CCCC(=O)O (stereo not shown) [17-hy-19,20-EpDPE, 17-hydroxy-19,20-epoxy-docosapentaenoic acid]
PMN (mean % suppression) [4]: 59.5%

CCC1OC1CC=CCC=CCC=CCC=CCC=CCCC(=O)O (stereo not shown) [19,20-EpDPE, 19,20-epoxydocosapentaenoic acid, reference compound]
PMN (mean % suppression) [2]: 0.0% | PMN (mean % suppression) [4]: 0.0%
